{"source": "patent US20260191861A1", "about": "“INFLAMMASOME AND VEGF INHIBITION FOR RETINAL VASCULAR DISEASES” (University of Virginia Patent Foundation, priority 2022, published 2026)", "tested_on": "caspase-1", "assay": "Rhegmatogenous retinal detachment (RRD) model: retinal caspase-1 cleavage by immunoblot", "format": "in vivo, mouse", "conditions": "day 3 RRD, equimolar IP doses twice daily (K-9H 60 mg/kg, 3TC 50 mg/kg)", "method": "All experiments involving animals were approved by the University of Virginia Institutional Animal Care and Use Committee (IACUC) and adhered to the Association for Research in Vision and Ophthalmology (ARVO) Statement for the Use of Animals in Ophthalmic and Vision Research. Animal subjects were male and female mice aged 6 to 10 weeks. Wild type C57BL/6J mice were obtained from the Jackson Laboratory (Bar Harbor, ME, USA). To anesthetize mice for study procedures, ketamine hydrochloride (100 mg/kg; Ft. Dodge Animal Health, Overland Park, KS, USA) and xylazine (10 mg/kg; Phoenix Scientific, St. Joseph, MO, USA) were delivered by intraperitoneal (IP) injection. Pupils were dilated with topical 1% tropicamide and 2.5% phenylephrine (Alcon Laboratories, Ft. Worth, TX, USA).\nRRD model was established by subretinal injection (SRI) of 3 μl 1% carboxymethyl cellulose (CMC; Refresh Liquigel, Allergan, Irvine, CA, USA).\nNRTIs and K-9 were delivered via intraperitoneal (IP) injection in equimolar amounts. […] Kamuvudine K-9 (3-methyl-3TC, MW=273 g/mol) was administered either at a low dose (K-9L; 90 mg/kg daily) or a high dose (K-9H; 60 mg/kg twice daily, equimolar to NRTI doses). IP injection of phosphate buffered saline (PBS) was used as control.\nRetinal tissue was extracted and lysed by sonication in radioimmunoprecipitation assay (RIPA) buffer (MilliporeSigma, Darmstadt, Germany). The Pierce BCA Protein Assay Kit (ThermoFisher Scientific, Waltham, MA, USA) was used to determine protein concentrations of interest. Samples were prepared that contained equal concentrations of total protein (10-100 μg). Protein samples were resolved by SDS-PAGE and transferred onto Immobilon-FL PVDF membranes (Millipore, Billerica, MA, USA). Membranes were blocked in Odyssey Blocking Buffer (PBS) for 1 hour at room temperature, and then incubated overnight with primary antibody at 4° C. Across study experiments, the following antibodies were used: anti-mouse caspase-1 (1:1000; AG-20B-0042; AdipoGen Life Sciences, San Diego, CA, USA), and anti-mouse GAPDH (1:1000; 2118; Cell Signaling, Danvers, MA, USA). […]", "data": [{"smiles": "Nc1ccn([C@@H]2CS[C@H](CO)O2)c(=O)n1", "note": "[Lamivudine]", "values": [{"measurement": "degree of suppression of caspase-1 activation", "result": 52, "unit": "%+8%"}]}]}
